# Source: patent publication US4130647A, “Methods for treating congestive heart failure and ischemic heart disease” (priority 1977, dated 1978)
# Where “and” joins values, the source holds several entries; their conditions need not be identical. Equal values may be shown once.
# Key:
# [1] = system: patients with congestive heart failure; test: Hemodynamic effects of oral trimazosin in congestive heart failure (Example 2); format: in vivo, human
# Description: Studies were performed in male patients with clinical and radiographic evidence of congestive heart failure due to ischemic or primary cardiomyopathy. To be eligible for the study patients had to have supine systolic blood pressure of at least 100 mm. Hg. and a supine resting cardiac index below 2.5 L/min./m^2, as measured by the non-invasive carbon dioxide rebreathing method [Franciosa, et al., J. Lab. Clin. Med., 88, 662 (1976) and Franciosa, et al., Circulation, 55, 449 (1977)]. Six patients met these criteria and were selected for the study.
# After obtaining written informed consent, patients were entered into a 2 day dose finding period during which single daily doses of trimazosin were given and blood pressure and heart rate monitored for 4 hours. On day one 100 mg. was given; if no response or side effects occurred, 200 mg. was given the next day. For purposes of this study a response was defined as a fall in supine blood pressure to a level equal to 0.2 × control systolic pressure +76 mm. Hg. This formula was arbitrarily chosen so that patients with control systolic blood pressure as low as 100 mm. Hg. would be included, and their pressures could be reduced to 96 mm. Hg. Upon completion to the dose finding period, no trimazosin was given for the next 24 hours to allow for washout of previous doses. After this, hemodynamic studies were performed employing the predetermined doses; if 200 mg. of trimazosin was ineffective, 300 mg. was given for hemodynamic studies.
# On the day of hemodynamic studies, diuretics and other vasodilators were withheld but maintenance digitalis doses were given in order to obtain a reasonably steady hemodynamic state. Procainamide was given to the one patient who had been taking it chronically. Right heart catheterization was performed using a triple lumen Swan-Ganz catheter which was inserted percutaneously via an antecubital or femoral vein and positioned with its tip in the pulmonary artery and the proximal lumen in the right atrium [Swan, et al,. N. Engl. J. Med., 283, 447 (1970)]. A brachial artery was cannulated with a short teflon catheter inserted over an 18-guage thin walled needle. Catheters were connected to P23Db Statham pressure transducers and pressures recorded on a Hewlett-Packard multichannel physiological recorder. Transducers were positioned at the mid-chest level with the patient supine, and all measurements were made in this position. Heart rate was monitored from the electrocardiogram. Cardiac outputs were measured by the dye-dilution method using indocyanine green injected into the pulmonary artery and sampled from the brachial artery through a Gilford densitometer connected to the recorder. Forearm venous capacitance was measured by occlusion plethysmography employing a Whitney mercury-in-rubber resistance guage [Cohen, et al., Clin. Sci., 30, 267 (1966) and Mason, et al., Circulation, 32, 756 (1965)]. For this determination, the forearm was elevated and suspended in a cradle. The venous occluding cuff was inflated to 30 mm. Hg. and forearm girth allowed to equilibrate over 2-3 minutes. The change in forearm girth at this point was taken as a measure of venous capacitance.
# Hemodynamic measurements were made before and at hourly intervals for 4 hours after administration of trimazosin. Pulmonary wedge pressure was taken as occluded pulmonary arterial pressure or pulmonary arterial diastolic pressure. These were not interchanged and only one was used in any given patient. Systemic vascular resistance was calculated as the difference between means systemic arterial and right atrial pressures divided by cardiac output. Pulmonary vascular resistance was calculated as mean pulmonary arterial pressure divided by cardiac output. […]
# [2] = system: patients with chronic left sided congestive heart failure; test: Adverse effects of trimazosin (Example 3); format: in vivo, human
# Description: The patients then received in a double-blind, randomized study trimazosin or placebo for six weeks. Eight patients received one placebo capsule three times daily for weeks one and two, two placebo capsules three times daily for weeks three and four, and three placebo capsules three times daily for weeks five and six of the double-blind period. Seven patients received one 50 mg. trimazosin capsule three times daily for weeks one and two, two 50 mg. trimazosin capsules three times daily for weeks three and four, and three 50 mg. trimazosin capsules three times daily for weeks five and six of the double-blind period. One patient (patient number five on trimazosin) received one 50 mg. trimazosin capsule three times daily for 32 days. […] The patients were seen by one of the investigators, questioned for symptoms, and given a physical examination in the baseline period, at the end of two weeks of single-blind placebo, and at the end of weeks one, two, three, four, five, and six on double-blind medication. A standard 12-lead electrocardiogram and PA and lateral chest roentgenograms were taken in the baseline period, at the end of two weeks of single-blind placebo, and at the end of three weeks and six weeks on double-blind medication.
# [3] = 2 hours after trimazosin, individual patients
smiles,measurement,setting,value
"COc1cc2c(N)nc(N3CCN(C(=O)OCC(C)(C)O)CC3)nc2c(OC)c1OC [trimazosin, 2-hydroxy-2-methylpropyl 4-(4-amino-6,7,8-trimethoxy-2-quinazolinyl)-1-piperazinecarboxylate]","cardiac index, patients not responding",[1]; 2 hours after trimazosin,failed to increase in 2 patients
same,"pulmonary arterial pressures, patients responding",[1]; 2 hours after trimazosin,fell in every patient
same,Cardiac Index,[1]; [3],1.86 L/min./m^2 and 1.14 L/min./m^2 and 2.36 L/min./m^2 and 1.74 L/min./m^2 and 2.96 L/min./m^2 and 2.67 L/min./m^2
same,Mean Pulmonary Arterial Pressure,[1]; [3],15 mm.Hg. and 39 mm.Hg. and 29 mm.Hg. and 49 mm.Hg. and 31 mm.Hg. and 40 mm.Hg.
same,Mean Systemic Arterial Pressure,[1]; [3],82 mm.Hg. and 78 mm.Hg. and 88 mm.Hg. and 87 mm.Hg. and 73 mm.Hg.
same,Pulmonary Vascular Resistance,[1]; [3],4 units and 18 units and 6 units and 15 units and 8 units
same,Pulmonary Wedge Pressure,[1]; [3],3 mm.Hg. and 28 mm.Hg. and 23 mm.Hg. and 37 mm.Hg. and 18 mm.Hg. and 34 mm.Hg.
same,Systemic Vascular Resistance,[1]; [3],23 units and 31 units and 16 units and 24 units and 15 units and 12 units
same,"Heart Rate, mean","[1]; 2 hours after trimazosin, mean dose 183.3 mg., control 88.0, ns",85.0 beats/min.
same,right atrial pressure,"[1]; 2 hours after trimazosin, before 11.3 ± 2.1",8.7 ± 1.6 mm. Hg.
same,"Cardiac Index, mean","[1]; 2 hours after trimazosin, control 1.76, ns",2.12 L/min./m^2
same,"Pulmonary Vascular Resistance, mean","[1]; 2 hours after trimazosin, control 15.8, P <0.05",9.5 units
same,"Systemic Vascular Resistance, mean","[1]; 2 hours after trimazosin, control 27.3, ns",20.2 units
same,"Pulmonary Wedge Pressure, mean","[1]; 2 hours after trimazosin, control 30.7, P <0.01",23.8 mm.Hg.
same,"Mean Pulmonary Arterial Pressure, mean","[1]; 2 hours after trimazosin, control 40.7, P <0.01",33.8 mm.Hg.
same,"Mean Systemic Arterial Pressure, mean","[1]; 2 hours after trimazosin, control 91.2, P <0.05",82.5 mm.Hg.
same,pulmonary wedge pressure persistence,[1]; 4 hours after trimazosin,still significantly below control at 4 hours
same,Heart Rate,"[1]; T = 2 hours after trimazosin (100-300 mg.), individual patients",96 beats/min. and 84 beats/min. and 75 beats/min. and 81 beats/min. and 78 beats/min.
same,left ventricular function curve shift upward and leftward,[1]; after trimazosin,Only one patient failed to shift their left ventricular function curve upward and leftward
same,stroke volume,[1]; after trimazosin,stroke volume was increased
same,time of maximal increase of cardiac index,[1]; after trimazosin,1 h
same,time of maximal reduction of pulmonary wedge pressure,[1]; after trimazosin,2 h
same,time of peak decline of mean systemic arterial pressure,[1]; after trimazosin,1.5 h
same,time of peak effects of the various hemodynamic parameters,[1]; after trimazosin,1 to 3 h
same,diastolic pressure at peak effect,"[1]; after trimazosin, control 74.8 ± 4.2, ns",67.0 ± 2.9 mm. Hg.
same,systolic arterial pressure at peak effect,"[1]; after trimazosin, control 128.3, p<0.05",116.8 ± 9.2 mm. Hg.
same,heart rate change,[1]; following trimazosin,the decrease achieved statistical significance
same,"right atrial pressure and forearm veins, patients responding",[1]; following trimazosin,Right atrial pressure fell and forearm veins dilated in every patient
same,right atrial pressure,"[1]; one patient with normal pulmonary wedge pressure, fell from 5",3 mm. Hg.
same,tachycardia,[1]; patients with congestive heart failure,did not produce tachycardia
same,cardiac output,[1]; patients with normal control cardiac output or normal control pulmonary wedge pressure,appeared to reduce cardiac output
same,adverse effects attributed to medication,[2]; 16 patients (trimazosin or placebo),No adverse effects attributed to medication occurred in any of the 16 patients
same,adverse effects such as systemic lupus erythematosus,[2]; in vivo,has not been associated with adverse effects such as systemic lupus erythematosus
same,reflex tachycardia,[2]; in vivo,does not produce a reflex tachycardia
same,event in patient number five,[2]; thirty-second day of trimazosin therapy,acute myocardial infarction with ventricular fibrillation
same,side effects,[2]; trimazosin 450 mg. daily,without occurrence of any side effects
